Legend:
hens = tested on: hens; design: method as in doi:10.1016/0378-4320(78)90011-8; conditions: injection eight hours before the pre-ovulation period; cited from earlier work
HTR1B = tested on: HTR1B; design: method as in PMID 10936173; conditions: human HTR1B stimulated with 5-HT; read-out: EC50, ERK activation; cited from earlier work
chicken HTR1E [1] = molecular target: T1, chicken HTR1E (Gallus gallus, UniProt E1BS44); experiment: pGL3-CRE-luciferase reporter assay, inhibition of forskolin-stimulated cAMP/PKA signaling; type: cell-based
Excerpt: (§1) According to our previously established methods, chicken HTR1B or HTR1E or HTR1F was transiently expressed in human embryonic kidney 293 (HEK293) cells and treated by 5-HT (10^−11 to 10^−7 M) or HTR1 agonists (CP94253, BRL54443 or LY344864, 10^−11 to 10^−5 M) for six hours. The receptor-activated signaling pathways were then examined by pGL3-CRE-luciferase (capable of monitoring cAMP/PKA signaling pathways) and pGL4-SRE-luciferase reporter systems (capable of monitoring MAPK/ERK signaling pathways). Luminescence was measured by a multimode microplate reader (TriStar LB941, EG&G Berthold, Bad Wildbad, Germany) according to the manufacturer’s instruction.
(§2) Luciferase reporter assays were performed to determine the signaling properties of HTR1B, HTR1E, and HTR1F using different ligands, including 5-HT (natural ligand), CP94253 (a selective HTR1B agonist), BRL54443 (a selective HTR1E agonist) and LY344864 (a selective HTR1F agonist) respectively. […] Using a pGL3-CRE-luciferase reporter system, the receptor-mediated inhibition of the cAMP/PKA signaling pathway was subsequently monitored as in our previous studies.
(§3) HEK293 cells were transiently co-transfected with HTR1 expression plasmid and pGL3-CRE/pGL4-SRE luciferase reporter construct, and subjected to ligand treatment for 6 h before measurement. Effects of 5-HT (A), CP94253 (B), BRL54443 (C), and LY344864 (D) (10^−11–10^−7 M, 6 h) on forskolin (2 μM)-stimulated luciferase activity of HEK293 cells expressing chicken HTR1B, HTR1E, and HTR1F, monitored by a pGL3-CRE luciferase reporter system. Effects of 5-HT (E), CP94253 (F), BRL54443 (G), and LY344864 (H) (10^−11–10^−5 M, 6 h) on luciferase activity of HEK293 cells expressing chicken HTR1B, HTR1E, and HTR1F, monitored by a pGL4-SRE luciferase reporter system. HEK293 cells co-transfected with empty pcDNA3.1(+) and luciferase reporter construct were used as a control. Each data point represents the mean ± SEM of 3 replicates.

chicken HTR1B [2] = molecular target: T2, chicken HTR1B (Gallus gallus, UniProt D3Y1H8); experiment: as above; type: cell-based; conditions: HEK293 cells expressing chicken HTR1B, inhibition of forskolin (2 μM)-stimulated luciferase activity, 6 h, read-out: EC50, cAMP/PKA signaling pathway, HTR1B
Excerpt: as §1, §2, §3

chicken HTR1F [3] = molecular target: T3, chicken HTR1F (Gallus gallus, UniProt A0A4P9IUX1); experiment: as above; type: cell-based
Excerpt: as §1, §2, §3

human HTR1E receptor = molecular target: human HTR1E receptor; design: method as in PMID 14744596; conditions: read-out: EC50, stimulation of [35S]GTPγS; cited from earlier work
chicken HTR1E [4] = molecular target: T1, chicken HTR1E; experiment: Western blot of CREB and ERK1/2 phosphorylation in transfected HEK293 cells; type: cell-based; conditions: HEK293 cells expressing HTR1E, 10 min
Procedure: (§4) HEK293 cells transfected with HTR1B, HTR1E or HTR1F expression plasmid were cultured on a 24-well plate at 37 °C and then treated with 5-HT for 10 min. Then, cells were lysed with 1 × passive lysis buffer (Promega). The phosphorylated ERK1/2 (pERK1/2) and CREB (pCREB) levels in cell lysates were examined by Western blot, as described in our previous studies.
(§5) In addition, Western blots were performed to elucidate these signaling properties of chicken HTR1B, HTR1E, and HTR1F. […] These findings further supported the functional coupling of the three receptors to the cAMP/PKA and MAPK/ERK signaling cascade, in agreement with previous luciferase assay results.
(§6) Figure 5 Western blot showing 5-HT treatment (100 nM, 10min) can inhibit the forskolin (FK) (2 μM)-stimulated phosphorylation levels of CREB (p-CREB) in HEK293 cells expressing chicken HTR1B, HTR1E, and HTR1F (A), and 5-HT treatment (10 μM, 10 min) can enhance phosphorylation of ERK1/2 (p-ERK1/2) in HEK293 cells expressing chicken HTR1B, HTR1E, and HTR1F (B).

chicken HTR1B [5] = molecular target: T2, chicken HTR1B; experiment: as above; type: cell-based; conditions: HEK293 cells expressing HTR1B, 10 min
Procedure: as §4, §5, §6

chicken HTR1F [6] = molecular target: T3, chicken HTR1F; experiment: as above; type: cell-based; conditions: HEK293 cells expressing HTR1F, 10 min
Procedure: as §4, §5, §6

chicken HTR1E [7] = molecular target: T1, chicken HTR1E; experiment: pGL4-SRE-luciferase reporter assay, MAPK/ERK signaling; type: cell-based
Excerpt: as §1, §3

chicken HTR1B [8] = molecular target: T2, chicken HTR1B; experiment: as above; type: cell-based; conditions: HEK293 cells expressing chicken HTR1B, stimulation of luciferase activity, 6 h, table values marked a roughly estimated, read-out: EC50, MAPK/ERK signaling pathway, HTR1B
Excerpt: as §1, §3

chicken HTR1F [9] = molecular target: T3, chicken HTR1F; experiment: as above; type: cell-based
Excerpt: as §1, §3

[10] = molecular target: guinea pig HTR1E receptor; design: method as in PMID 14744596; conditions: read-out: EC50, stimulation of [35S]GTPγS; cited from earlier work
[11] = tested on: cultured chicken pituitary cells; experiment: VIP- or forskolin-stimulated PRL secretion, Western blot; type: cell-based; conditions: 6 h; for effect on VIP-stimulated PRL secretion: VIP 5 nM; for effect on forskolin-stimulated PRL secretion: forskolin 2 μM
Procedure: As described in the previous experiment, anterior pituitaries were collected from 3-week-old male or female chicks; then, digested by 0.25% trypsin at 37 °C for 30 min. The dispersed pituitary cells were then cultured at a density of 5 × 10^5 cells/well on Corning® CellBIND® 48-well plates (Corning, Lowell, MA, USA) with culture medium 199 (M199, Gibco, Grand Island, NY, USA) containing 10% FBS (Gibco) at 37 °C with 5% CO2. After 18 h of culture, the culture medium was removed, and cells were treated with 120 μL M-199 containing various concentration of 5-HT (0.1 μM) or CP94253 (10 μM) or BRL54443 (10 μM) or LY344864 (10 μM) in the presence of VIP (5 nM) or forskolin (FK, 2 μM). After 6 h of treatment, the culture medium was collected for measurement of PRL secretion, and then pituitary cells were lysed with 1 × passive lysis buffer (Promega) and lysates were collected to examine intracellular PRL and β-actin levels. The protein samples were electrophoresed and transferred to the membrane, and then the standard procedures were used for protein detection. The PRL rabbit polyclonal antibody (1:500) against recombinant full-length chicken PRL were prepared in our laboratory and used to detect the PRL protein levels in our previous study.
Relative PRL levels were calculated as the ratio to the intracellular β-actin level and then expressed as a percentage of control or VIP or forskolin treatment groups. The relative mRNA level of each gene was first calculated as the ratio to that of β-actin and then expressed as fold change compared with the respective control. GraphPad Prism 7 (GraphPad Software Inc, San Diego, California, USA) was used for statistical analysis. Data were analyzed by the unpaired Student’s t-test (for two groups) or by one-way ANOVA, followed by the Dunnett’s test (for comparing treatment groups with control). Data are presented as mean ± SEM.
Figure 8 Western blot showing the effects of various selective agonists ((A): 5-HT; (B): CP94253; (C): BRL54443; (D): LY344864) on VIP (5 nM) or forskolin (FK, 2 μM)-stimulated cPRL secretion in cultured chicken pituitary cells. sPRL represents secretory PRL, and iPRL represents intracellular PRL. Protein levels were semi-quantified by densitometry, β-actin was used as an internal control. For the sPRL analysis, the 5 nM VIP or 2 μM FK treated group was regarded as 100%, while for the iPRL analysis, the control group (without any drug treatment) was regarded as 100%. Different letters indicate statistical difference between two groups (p ≤ 0.01), as determined by one-way ANOVA and a Tukey’s test. Each data point represents the mean ± SEM of three replicates (n = 3).

HTR1F = tested on: HTR1F; design: method as in PMID 17715266; conditions: in mammals; cited from earlier work

T3 sequence (A0A4P9IUX1 entry or part of it): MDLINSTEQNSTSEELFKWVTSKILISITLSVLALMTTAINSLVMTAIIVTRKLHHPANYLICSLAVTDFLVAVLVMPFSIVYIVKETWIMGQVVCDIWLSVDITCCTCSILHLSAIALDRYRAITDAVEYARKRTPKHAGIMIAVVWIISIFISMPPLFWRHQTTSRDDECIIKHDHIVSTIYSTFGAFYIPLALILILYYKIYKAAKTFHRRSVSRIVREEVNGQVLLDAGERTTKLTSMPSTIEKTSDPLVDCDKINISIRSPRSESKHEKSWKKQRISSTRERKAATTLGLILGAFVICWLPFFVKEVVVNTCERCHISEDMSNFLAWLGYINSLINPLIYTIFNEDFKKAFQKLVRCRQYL
T2 sequence (D3Y1H8 1-379): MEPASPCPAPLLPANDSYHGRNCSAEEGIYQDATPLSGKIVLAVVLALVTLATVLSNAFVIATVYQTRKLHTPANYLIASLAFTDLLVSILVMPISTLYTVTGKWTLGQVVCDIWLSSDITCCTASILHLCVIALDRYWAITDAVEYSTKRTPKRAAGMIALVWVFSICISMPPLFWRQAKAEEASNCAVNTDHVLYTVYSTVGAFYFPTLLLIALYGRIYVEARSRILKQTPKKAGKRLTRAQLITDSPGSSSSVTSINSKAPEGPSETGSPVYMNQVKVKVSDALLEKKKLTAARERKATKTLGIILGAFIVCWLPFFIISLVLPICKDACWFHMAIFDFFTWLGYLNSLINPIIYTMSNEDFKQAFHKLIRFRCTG
T1 sequence (E1BS44 1-371): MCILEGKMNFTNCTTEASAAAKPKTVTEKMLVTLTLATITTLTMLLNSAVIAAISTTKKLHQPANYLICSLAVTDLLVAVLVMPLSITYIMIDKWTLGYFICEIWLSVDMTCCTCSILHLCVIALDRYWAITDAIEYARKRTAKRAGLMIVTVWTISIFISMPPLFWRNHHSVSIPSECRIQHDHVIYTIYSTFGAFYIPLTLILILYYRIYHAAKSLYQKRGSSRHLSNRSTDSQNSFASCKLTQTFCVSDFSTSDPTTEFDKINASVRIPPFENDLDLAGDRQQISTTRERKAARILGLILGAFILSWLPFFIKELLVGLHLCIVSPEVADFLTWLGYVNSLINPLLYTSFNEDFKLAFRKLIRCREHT

Question: What does the source list for `NCCc1c[nH]c2ccc(O)cc12` [5-HT, 5-hydroxytryptamine]?
Answer: ovulation failure (hens): 90 % of hens; EC50 (HTR1B): […]; EC50 (chicken HTR1E [1]): 9.3 nM; EC50 (chicken HTR1B [2]): 8 nM; EC50 (chicken HTR1F [3]): 5.7 nM; EC50 (human HTR1E receptor): […]; effect on forskolin-stimulated CREB phosphorylation (chicken HTR1E [4]; 100 nM, forskolin 2 μM): could inhibit forskolin (2 μM)-stimulated CREB phosphorylation; effect on ERK1/2 phosphorylation (chicken HTR1E [4]; 10 μM): could enhance ERK1/2 (44/42 kDa) phosphorylation; effect on forskolin-stimulated CREB phosphorylation (chicken HTR1B [5]; 100 nM, forskolin 2 μM): could inhibit forskolin (2 μM)-stimulated CREB phosphorylation; effect on ERK1/2 phosphorylation (chicken HTR1B [5]; 10 μM): could enhance ERK1/2 (44/42 kDa) phosphorylation; effect on forskolin-stimulated CREB phosphorylation (chicken HTR1F [6]; 100 nM, forskolin 2 μM): could inhibit forskolin (2 μM)-stimulated CREB phosphorylation; effect on ERK1/2 phosphorylation (chicken HTR1F [6]; 10 μM): could enhance ERK1/2 (44/42 kDa) phosphorylation; EC50 (chicken HTR1E [7]): > 100 nM; EC50 (chicken HTR1B [8]): > 800 nM; EC50 (chicken HTR1F [9]): > 500 nM; EC50 [10]: 13.6 ± 1.92 nM; effect on VIP-stimulated PRL secretion ([11]; 0.1 μM): showed no significant effect on VIP-stimulated PRL secretion; effect on forskolin-stimulated PRL secretion ([11]; 0.1 μM): showed no significant effect on PRL release

Question: For `CN(C)[C@@H]1CCc2[nH]c3ccc(NC(=O)c4ccc(F)cc4)cc3c2C1` [LY344864], which EC50 (chicken HTR1F [3]; HEK293 cells expressing chicken HTR1F, pGL3-CRE-luciferase, inhibition of forskolin (2 μM)-stimulated luciferase activity, 6 h, read-out: EC50, cAMP/PKA signaling pathway, HTR1F) is on record?
Answer: 1.8 nM

Question: And the “affinity for HTR1F relative to HTR1A, HTR1B, HTR1D, and HTR1E” value (HTR1F)?
Answer: ~ 100 fold

Question: What about the “pKd for HTR1F” value (HTR1F) of the same compound?
Answer: 8.2

Question: What about the EC50 (chicken HTR1F [9]; HEK293 cells expressing chicken HTR1F, pGL4-SRE-luciferase, stimulation of luciferase activity, 6 h, table values marked a roughly estimated, read-out: EC50, MAPK/ERK signaling pathway, HTR1F) of the same compound?
Answer: > 200 nM

Question: What about the “effect on VIP-stimulated PRL secretion” value ([11]; 10 μM) of the same compound?
Answer: could significantly inhibit VIP-stimulated PRL secretion

Question: And the “effect on forskolin-stimulated PRL secretion” value ([11]; 10 μM)?
Answer: could significantly inhibit PRL secretion

Question: Which EC50 (chicken HTR1E [1]) does the source give for `CN1CCC(c2c[nH]c3ccc(O)cc23)CC1` [BRL54443, 3-(-1-methylpiperidin-4-yl)-1H-indol-5-ol] here?
Answer: 2.4 nM

Question: And the EC50 (chicken HTR1E [7])?
Answer: 28.8 nM

Question: And the “effect on VIP-stimulated PRL secretion” value ([11]; 10 μM)?
Answer: showed no significant effect on VIP-stimulated PRL secretion

Question: What about the “effect on forskolin-stimulated PRL secretion” value ([11]; 10 μM) of the same compound?
Answer: showed no significant effect on PRL release

Question: What does the source list for `CCCOc1ccc2[nH]cc(C3=CCNCC3)c2n1` [CP94253]?
Answer: EC50 (chicken HTR1B [2]): 4 nM; EC50 (chicken HTR1B [8]): > 200 nM; effect on VIP-stimulated PRL secretion ([11]; 10 μM): showed no significant effect on VIP-stimulated PRL secretion; effect on forskolin-stimulated PRL secretion ([11]; 10 μM): showed no significant effect on PRL release

From publication PMC8230051, “Molecular Cloning and Functional Characterization of Three 5-HT Receptor Genes (HTR1B, HTR1E, and HTR1F) in Chickens” (Genes, 2021)
